From ChEMBL document CHEMBL1153300, “Identification and SAR of novel diaminopyrimidines. Part 2: The discovery of RO-51, a potent and selective, dual P2X(3)/P2X(2/3) antagonist for the treatment of pain” (Bioorg Med Chem Lett, 2009)
Blank lines part the entries; values can stand above or below the compound they belong to.

Legend:
[1] = target: T1, P2X2/P2X3 heterotrimeric receptor (Homo sapiens, UniProt P56373+Q9UBL9); assay: Antagonist activity at human P2X2/3 receptor expressed in 1321n1c cells by FLIPR; type: functional, cell-based
T1 sequence (Q9UBL9 whole entry): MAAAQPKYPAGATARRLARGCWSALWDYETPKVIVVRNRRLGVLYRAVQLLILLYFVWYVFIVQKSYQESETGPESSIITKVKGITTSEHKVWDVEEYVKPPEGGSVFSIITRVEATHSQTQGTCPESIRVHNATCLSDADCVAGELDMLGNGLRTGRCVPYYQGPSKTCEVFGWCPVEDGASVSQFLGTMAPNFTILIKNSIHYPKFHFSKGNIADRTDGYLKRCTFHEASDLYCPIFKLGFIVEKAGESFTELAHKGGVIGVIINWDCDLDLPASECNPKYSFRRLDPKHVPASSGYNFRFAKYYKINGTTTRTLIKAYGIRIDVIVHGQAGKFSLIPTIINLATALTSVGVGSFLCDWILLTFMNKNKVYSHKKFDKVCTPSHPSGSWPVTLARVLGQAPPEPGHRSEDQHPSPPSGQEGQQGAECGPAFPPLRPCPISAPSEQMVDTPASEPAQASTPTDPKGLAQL
T1 sequence (P56373 whole entry): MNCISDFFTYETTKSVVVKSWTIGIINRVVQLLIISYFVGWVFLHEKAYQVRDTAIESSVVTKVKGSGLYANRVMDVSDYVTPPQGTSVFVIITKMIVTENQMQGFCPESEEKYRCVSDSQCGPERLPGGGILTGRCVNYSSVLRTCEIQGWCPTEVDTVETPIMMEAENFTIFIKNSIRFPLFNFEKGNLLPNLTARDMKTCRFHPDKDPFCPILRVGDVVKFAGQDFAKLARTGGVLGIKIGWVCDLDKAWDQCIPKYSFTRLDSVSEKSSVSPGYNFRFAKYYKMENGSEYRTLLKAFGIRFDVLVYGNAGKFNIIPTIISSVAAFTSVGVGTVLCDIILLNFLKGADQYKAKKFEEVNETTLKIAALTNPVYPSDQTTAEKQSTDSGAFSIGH

P2X purinoceptor 3 = target: T2, P2X purinoceptor 3 (Rattus norvegicus, UniProt P49654); assay: Antagonist activity at rat P2X3 receptor expressed in CHO cells by FLIPR; type: functional, cell-based
T2 sequence (P49654 whole entry): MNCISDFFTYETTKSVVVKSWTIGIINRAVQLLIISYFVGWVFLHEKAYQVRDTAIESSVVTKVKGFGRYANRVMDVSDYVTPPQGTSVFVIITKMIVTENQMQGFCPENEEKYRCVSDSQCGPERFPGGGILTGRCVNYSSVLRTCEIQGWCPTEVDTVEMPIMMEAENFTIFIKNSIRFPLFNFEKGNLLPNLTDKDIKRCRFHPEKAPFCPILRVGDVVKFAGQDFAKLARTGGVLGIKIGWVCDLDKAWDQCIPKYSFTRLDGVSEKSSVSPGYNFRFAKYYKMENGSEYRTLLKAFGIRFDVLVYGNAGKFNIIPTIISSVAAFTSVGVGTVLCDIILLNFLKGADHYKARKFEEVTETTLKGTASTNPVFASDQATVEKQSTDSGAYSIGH

[2] = Oral bioavailability in dog; type: ADME, organism-based, Canis lupus familiaris; conditions: in vivo
[3] = Oral bioavailability in rat at 2 mg/kg administered as single dose; type: ADME, organism-based; conditions: in vivo
[4] = Half life in dog; type: ADME, organism-based, Canis lupus familiaris; conditions: in vivo
[5] = AUC in rat at 2 mg/kg, po administered as single dose; type: ADME, organism-based; set-up: dose 2 mg/kg, route oral; conditions: plasma
Canis familiaris = species on record: Canis familiaris; assay: Clearance in dog; type: ADME, organism-based, Canis lupus familiaris; conditions: in vivo
[6] = Cmax in rat at 2 mg/kg, po administered as single dose; type: ADME, organism-based; set-up: dose 2 mg/kg, route oral; conditions: in vivo
[7] = Tmax in rat at 2 mg/kg, po administered as single dose; type: ADME, organism-based; set-up: dose 2 mg/kg, route oral; conditions: in vivo
[8] = Apparent permeability from apical to basolateral side of human Caco-2 cells; type: ADME, cell-based
[9] = AUC in rat at 2 mg/kg, iv administered as single dose; type: ADME, organism-based; set-up: dose 2 mg/kg, route intravenous; conditions: plasma
P2X purinoceptor 5 = P2X purinoceptor 5 (Homo sapiens, UniProt Q93086); assay: Antagonist activity at P2X5 receptor up to 10 uM; type: functional
Chain of P2X purinoceptor 5 (Q93086 whole entry): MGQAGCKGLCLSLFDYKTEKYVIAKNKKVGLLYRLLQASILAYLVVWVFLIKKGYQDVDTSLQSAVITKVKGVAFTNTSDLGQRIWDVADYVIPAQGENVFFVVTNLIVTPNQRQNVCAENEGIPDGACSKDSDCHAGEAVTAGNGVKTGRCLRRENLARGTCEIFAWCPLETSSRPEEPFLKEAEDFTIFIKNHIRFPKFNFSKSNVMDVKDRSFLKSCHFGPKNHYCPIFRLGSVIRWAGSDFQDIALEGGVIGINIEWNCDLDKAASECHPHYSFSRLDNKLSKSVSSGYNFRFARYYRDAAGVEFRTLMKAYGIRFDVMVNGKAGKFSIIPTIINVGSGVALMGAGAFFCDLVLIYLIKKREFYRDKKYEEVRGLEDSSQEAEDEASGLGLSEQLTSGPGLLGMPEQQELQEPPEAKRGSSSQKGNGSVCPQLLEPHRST

[10] = Tmax in rat at 2 mg/kg, iv administered as single dose; type: ADME, organism-based; set-up: dose 2 mg/kg, route intravenous; conditions: in vivo
[11] = Half life in rat at 2 mg/kg, iv administered as single dose; type: ADME, organism-based; set-up: dose 2 mg/kg, route intravenous; conditions: in vivo
[12] = Half life in rat at 2 mg/kg, po administered as single dose; type: ADME, organism-based; set-up: dose 2 mg/kg, route oral; conditions: in vivo
[13] = Cmax in rat at 2 mg/kg, iv administered as single dose; type: ADME, organism-based; set-up: dose 2 mg/kg, route intravenous; conditions: in vivo
Rattus norvegicus = assay: Clearance in rat at 2 mg/kg, iv administered as single dose; type: ADME, organism-based; set-up: dose 2 mg/kg, route intravenous; conditions: in vivo

SMILES: COc1cc(C(C)C)c(Oc2cnc(NCCN3CCOCC3)nc2N)cc1I
- IC50 ([1]; read-out: pIC50 (converted)): 398 nM
- IC50 (P2X purinoceptor 3; read-out: pIC50 (converted)): 158 nM

SMILES: COc1cc(C(C)C)c(Oc2cnc(N(C)C)nc2N)cc1I
- IC50 ([1]; read-out: pIC50 (converted)): > 10000 nM
- IC50 (P2X purinoceptor 3; read-out: pIC50 (converted)): > 10000 nM

SMILES: COc1cc(C(C)C)c(Oc2cnc(NC(CO)CO)nc2N)cc1I
- bioavailability [2]: 79%
- bioavailability [3]: 48%
- half-life [4]: 3.88 h
- AUC [5]: 237 ng·h/mL
- clearance (Canis familiaris): 4.65 mL/min/kg
- Cmax [6]: 104 ng/mL
- Tmax [7]: 0.833 h
- Papp A→B [8]: 9.43 ×10⁻⁶ cm/s
- AUC [9]: 495 ng·h/mL
- IC50 (P2X purinoceptor 5): > 10000 nM
- Tmax [10]: 0.167 h
- half-life [11]: 1.07 h
- half-life [12]: 1.52 h
- Cmax [13]: 554 ng/mL
- clearance (Rattus norvegicus): 71.9 mL/min/kg

SMILES: COc1cc(C(C)C)c(Oc2cnc(NC3CCN(S(C)(=O)=O)CC3)nc2N)cc1I
- IC50 ([1]; read-out: pIC50 (converted)): 316 nM
- IC50 (P2X purinoceptor 3; read-out: pIC50 (converted)): 100 nM

SMILES: COc1cc(C(C)C)c(Oc2cnc(N)nc2N)cc1I
- bioavailability [2]: 72%
- bioavailability [3]: 39%
- half-life [4]: 1.5 h
- AUC [5]: 240 ng·h/mL
- clearance (Canis familiaris): 13 mL/min/kg
- IC50 ([1]; read-out: IC50): 25 nM
- IC50 ([1]; read-out: pIC50 (converted)): 39.8 nM
- Cmax [6]: 64.3 ng/mL
- Tmax [7]: 1.33 h
- AUC [9]: 628 ng·h/mL
- Tmax [10]: 0.083 h
- half-life [11]: 0.94 h
- half-life [12]: 2.09 h
- Cmax [13]: 589 ng/mL
- clearance (Rattus norvegicus): 52.8 mL/min/kg
- IC50 (P2X purinoceptor 3; read-out: IC50): 13 nM

Now from value to compound:

- IC50 ([1]; read-out: pIC50 (converted)): 15.8 nM
SMILES: COc1cc(C(C)C)c(Oc2cnc(NCCO)nc2N)cc1I

- IC50 ([1]; read-out: pIC50 (converted)): 251 nM
- IC50 (P2X purinoceptor 3; read-out: pIC50 (converted)): 158 nM
SMILES: COc1cc(C(C)C)c(Oc2cnc(NCCN(C)C)nc2N)cc1I

- IC50 ([1]; read-out: pIC50 (converted)): 794 nM
SMILES: COc1cc(C(C)C)c(Oc2cnc(NC(C)(C)CO)nc2N)cc1I

- IC50 ([1]; read-out: pIC50 (converted)): 200 nM
- IC50 (P2X purinoceptor 3; read-out: pIC50 (converted)): 79.4 nM
SMILES: COc1cc(C(C)C)c(Oc2cnc(NCC(F)(F)F)nc2N)cc1I
